Here are results for one molecule from PMC11584650, “An inhibitory segment within G-patch activators tunes Prp43-ATPase activity during ribosome assembly” (Nature Communications, 2024).

Structures are written as SMILES.

The target of assay [1] is T1, Prp43:Tma23^M (Saccharomyces cerevisiae, UniProt P53131).
T1 construct: 1:1 complex of Prp43 with the middle (I-patch containing) domain of Tma23, co-expressed in E. coli; with Protein TMA23
In words: pyruvate kinase/lactate dehydrogenase coupled NADH assay, Michaelis-Menten fit. It counts as biochemical. To be noted: no RNA; 20 mM MgCl2, 50 mM Hepes pH 7.5, 200 mM KCl, room temperature, ATP up to 2.5 mM. From the text:
pyruvate kinase/lactate dehydrogenase coupled NADH assay, Michaelis-Menten fit on Prp43:Tma23^M | We obtained kinetic parameters for the ATPase activities of Prp43, Prp43:Tma23^M and Ppr43:Pxr1^M complexes

The target in assay [2] is T2, Prp43:Pxr1^GM (Saccharomyces cerevisiae, UniProt P53131).
T2 construct: full-length Prp43 with G-patch plus middle domain of Pxr1 (137 residues), co-expressed in E. coli; resolved Prp43 52-718 and Pxr1 122-136; with Protein PXR1
The assay is described as follows: pyruvate kinase/lactate dehydrogenase coupled NADH assay, initial rate. It counts as biochemical. Particulars: 2.5 mM ATP, no RNA; 20 mM MgCl2, 50 mM Hepes pH 7.5, 200 mM KCl, room temperature.

T1 sequence (P53131 whole entry): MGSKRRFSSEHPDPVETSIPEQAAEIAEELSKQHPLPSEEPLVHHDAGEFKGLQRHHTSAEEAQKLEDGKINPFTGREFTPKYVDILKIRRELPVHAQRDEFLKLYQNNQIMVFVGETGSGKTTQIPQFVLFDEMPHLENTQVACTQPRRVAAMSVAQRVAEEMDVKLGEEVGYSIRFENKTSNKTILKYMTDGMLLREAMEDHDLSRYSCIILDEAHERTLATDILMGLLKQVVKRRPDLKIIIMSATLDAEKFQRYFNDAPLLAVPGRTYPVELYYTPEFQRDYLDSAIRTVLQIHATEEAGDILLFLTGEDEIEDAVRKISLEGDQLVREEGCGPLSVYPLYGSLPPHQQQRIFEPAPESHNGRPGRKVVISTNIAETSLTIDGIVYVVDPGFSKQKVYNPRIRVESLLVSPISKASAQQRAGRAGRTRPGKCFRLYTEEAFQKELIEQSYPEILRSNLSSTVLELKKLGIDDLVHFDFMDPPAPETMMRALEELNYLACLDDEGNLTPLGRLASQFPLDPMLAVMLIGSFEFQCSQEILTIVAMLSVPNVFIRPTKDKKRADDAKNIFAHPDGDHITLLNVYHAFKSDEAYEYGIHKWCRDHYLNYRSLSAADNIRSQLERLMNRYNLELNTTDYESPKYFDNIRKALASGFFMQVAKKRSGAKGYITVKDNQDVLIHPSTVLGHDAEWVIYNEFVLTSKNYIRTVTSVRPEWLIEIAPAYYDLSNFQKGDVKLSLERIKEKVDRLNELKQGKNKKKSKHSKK
T1 sequence (Q03525 whole entry partner): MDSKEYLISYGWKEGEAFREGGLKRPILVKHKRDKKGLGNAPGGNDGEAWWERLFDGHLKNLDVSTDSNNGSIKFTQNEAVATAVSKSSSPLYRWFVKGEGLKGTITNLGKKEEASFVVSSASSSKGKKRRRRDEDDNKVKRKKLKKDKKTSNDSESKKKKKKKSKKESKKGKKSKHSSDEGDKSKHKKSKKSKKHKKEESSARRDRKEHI
T2 sequence (P53131 whole entry, the tested form may be a part): as the sequence (P53131 whole entry) above
T2 sequence (P53335 1-137 partner): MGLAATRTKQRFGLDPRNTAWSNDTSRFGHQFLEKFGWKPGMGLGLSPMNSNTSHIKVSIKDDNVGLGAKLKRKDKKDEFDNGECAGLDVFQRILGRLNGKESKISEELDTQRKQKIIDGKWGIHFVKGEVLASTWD

For `Nc1ncnc2c1ncn2[C@@H]1O[C@H](COP(=O)(O)OP(=O)(O)OP(=O)(O)O)[C@@H](O)[C@H]1O` [ATP], the Km (as a rule, the substrate concentration at which the rate is half of its maximum) in assay [1] was found to be 34 ± 4.56 µM. For the same molecule, in assay [2], the “pyruvate kinase/lactate dehydrogenase coupled NADH assay, initial rate” value was “Pxr1^GM, Pxr1^GM-L33E, and Pxr1^M were co-expressed with Prp43”.
